Assay results as given in ChEMBL document CHEMBL1201862, “PubChem BioAssay data set” (2004).
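All cell lines were grown in 96-well plates and treated with compound for 48 hours. Abbreviation: GI50, concentration required for 50% inhibition of growth.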 Active and inactive are the calls of the source. Rule as the data show it: active = GI50 up to about 1.1 µM and inactive = higher.

Experiments:
Assay in all cases: NCI-60 cell line screen, 48 h
[1] = tested on: DU-145
[2] = tested on: ACHN
[3] = tested on: K562
[4] = tested on: A549
[5] = tested on: UACC-62
[6] = tested on: NCI-H460
[7] = tested on: OVCAR-3
[8] = tested on: LOX IMVI
[9] = tested on: MCF7
[10] = tested on: MOLT-4
[11] = tested on: NCI-H23
[12] = tested on: IGROV-1
[13] = tested on: OVCAR-4
[14] = tested on: A498
[15] = tested on: BT-549
[16] = tested on: 786-0
[17] = tested on: UACC-257
[18] = tested on: T47D
[19] = tested on: OVCAR-8
[20] = tested on: TK-10

Compound	GI50 [1]	GI50 [2]	GI50 [3]	GI50 [4]	GI50 [5]	GI50 [6]	GI50 [7]	GI50 [8]	GI50 [9]	GI50 [10]	GI50 [11]	GI50 [12]	GI50 [13]	GI50 [14]	GI50 [15]	GI50 [16]	GI50 [17]	GI50 [18]	GI50 [19]	GI50 [20]
NS(=O)(=O)c1ccc(NC(=O)c2cccc3cc4ccccc4nc23)cc1	> 100 µM (inactive)	6.64 µM (inactive)	30.1 µM (inactive)	10 µM (inactive)	66.5 µM (inactive)	5.02 µM (inactive)	46.6 µM (inactive)	6.14 µM (inactive)	6.68 µM (inactive)	2.7 µM (inactive)	20.5 µM (inactive)	> 78.2 µM (inactive)	21 µM (inactive)	> 43.7 µM (inactive)	42.4 µM (inactive)	12.8 µM (inactive)	71.4 µM (inactive)	96.6 µM (inactive)	6.3 µM (inactive)	28.2 µM (inactive)
CC(C)(C)[Si](C)(C)OCC1OC(n2ccc(=O)[nH]c2=O)C(O[Si](C)(C)C(C)(C)C)/C1=N/O (stereo not given)	9.29 µM (inactive)	3.2 µM (inactive)	2.77 µM (inactive)	3.14 µM (inactive)	5.96 µM (inactive)	3.44 µM (inactive)	8.67 µM (inactive)	4.67 µM (inactive)	3.47 µM (inactive)	2.43 µM (inactive)	3.44 µM (inactive)	4.18 µM (inactive)	4.25 µM (inactive)	4.97 µM (inactive)	7.6 µM (inactive)	2.64 µM (inactive)	4.17 µM (inactive)	6.22 µM (inactive)	3.33 µM (inactive)	6.68 µM (inactive)
CC(C)(C)C1=CC(=CC=C2C=CN(CCCCCCCCCCCO)C=C2)C=C(C(C)(C)C)C1=O	2.88 µM (inactive)	2.19 µM (inactive)	1.06 µM (active)	1.62 µM (inactive)	1.5 µM (inactive)	2.01 µM (inactive)	1.01 µM (active)	0.735 µM (active)	0.796 µM (active)	1.32 µM (inactive)	2.03 µM (inactive)	0.815 µM (active)	1.76 µM (inactive)	3.01 µM (inactive)	2.12 µM (inactive)	1.26 µM (inactive)	1.87 µM (inactive)	0.498 µM (active)	1.31 µM (inactive)	1.5 µM (inactive)
C/C(=C1/N=C(c2ccccc2)OC1=O)c1ccc(C)cc1	> 100 µM (inactive)	> 100 µM (inactive)	> 100 µM (inactive)	> 100 µM (inactive)	> 100 µM (inactive)	> 100 µM (inactive)	> 100 µM (inactive)	> 100 µM (inactive)	> 100 µM (inactive)	> 100 µM (inactive)	> 100 µM (inactive)	> 100 µM (inactive)	> 100 µM (inactive)	> 100 µM (inactive)	> 100 µM (inactive)	> 100 µM (inactive)	> 100 µM (inactive)	> 100 µM (inactive)	> 100 µM (inactive)	> 100 µM (inactive)
